The values below come from ChEMBL document CHEMBL4373746, “Structural attributes influencing unbound tissue distribution” (Eur J Med Chem, 2020).

The nature of data set [1]: Unbound tissue partition coefficient, ratio of drug level in liver to plasma in Wistar Han rat at 1 to 2 mg/kg, iv infused for 10 to 20 hrs by LC-MS/MS analysis. The settings on record: liver/plasma.
A short description of data set [2]: Fraction unbound in Wistar Han rat white adipose tissue at 2 uM incubated for 6 hrs by equilibrium dialysis method.
Data set [3] is described as follows: Unbound tissue partition coefficient, ratio of drug level in adipose to plasma in Wistar Han rat at 1 to 2 mg/kg, iv infused for 10 to 20 hrs by LC-MS/MS analysis. The settings on record: adipose/plasma.
Data set [4] can be described thus: Unbound tissue partition coefficient, ratio of drug level in heart to plasma in Wistar Han rat at 1 to 2 mg/kg, iv infused for 10 to 20 hrs by LC-MS/MS analysis. As to conditions: heart/plasma.
A short description of data set [5]: Unbound tissue partition coefficient, ratio of drug level in skeletal muscle to plasma in Wistar Han rat at 1 to 2 mg/kg, iv infused for 10 to 20 hrs by LC-MS/MS analysis. The settings on record: skeletal muscle/plasma.
Data set [6] can be described thus: Total plasma concentration in Wistar Han rat at 1 to 2 mg/kg, iv infused for 10 to 20 hrs by LC-MS/MS analysis. The settings on record: in vivo.
The nature of data set [7]: Fraction unbound in Wistar Han rat plasma at 2 uM incubated for 6 hrs by equilibrium dialysis method. For orientation: In equilibrium dialysis free small molecules cross a membrane that holds back macromolecules.
The nature of data set [8]: Fraction unbound in Wistar Han rat skeletal muscle at 2 uM incubated for 6 hrs by equilibrium dialysis method.
Data set [9] is described as follows: Fraction unbound in Wistar Han rat liver at 2 uM incubated for 6 hrs by equilibrium dialysis method.
The nature of data set [10]: Unbound tissue partition coefficient, ratio of drug level in brain to plasma in Wistar Han rat at 1 to 2 mg/kg, iv infused for 10 to 20 hrs by LC-MS/MS analysis. As to conditions: brain/plasma.
Data set [11] can be described thus: Fraction unbound in Wistar Han rat heart at 2 uM incubated for 6 hrs by equilibrium dialysis method.
Data set [12] can be described thus: Drug concentration in total liver in Wistar Han rat at 1 to 2 mg/kg, iv infused for 10 to 20 hrs by LC-MS/MS analysis. As to conditions: in vivo.
Data set [13] in a line: Drug concentration in total heart in Wistar Han rat at 1 to 2 mg/kg, iv infused for 10 to 20 hrs by LC-MS/MS analysis. As to conditions: in vivo.
The nature of data set [14]: Drug concentration in total skeletal muscle in Wistar Han rat at 1 to 2 mg/kg, iv infused for 10 to 20 hrs by LC-MS/MS analysis. The settings on record: in vivo.
A short description of data set [15]: Drug concentration in total brain in Wistar Han rat at 1 to 2 mg/kg, iv infused for 10 to 20 hrs by LC-MS/MS analysis. The settings on record: in vivo.
Data set [16] can be described thus: Fraction unbound in Wistar Han rat brain at 2 uM incubated for 6 hrs by equilibrium dialysis method.
A short description of data set [17]: Drug concentration in total white adipose tissue in Wistar Han rat at 1 to 2 mg/kg, iv infused for 10 to 20 hrs by LC-MS/MS analysis. As to conditions: in vivo.
Data set [18] can be described thus: Apparent permeability of the compound across dog RRCK cells by MDCK-LE assay.

A word on the fraction unbound: it is free concentration divided by total concentration. Read a high fraction unbound as much free substance. What is called Papp is a coefficient for how fast a substance crosses the barrier. `COc1ccc(Cc2cc([C@@H]3OC4(COC4)[C@@H](O)[C@H](O)[C@H]3O)ccc2C)cc1`: the Kp uu amounted to 2.7 in data set [1]; 0.16 in data set [3]; 1.2 in data set [4]; 0.71 in [5]; 0.048 in [10]. Further, the fraction unbound at 6 h, 2 µM in data set [2] is 0.132; in data set [7] it was 0.212; in [8] it was 0.114; in data set [9], 0.125; in data set [11], 0.076; in data set [16], 0.0553. The compound also showed a Cp in [6] of 81 ng/mL. Besides, the Ct was found to be 360 ng/mL in data set [12]; 260 ng/mL in data set [13]; 110 ng/mL in data set [14]; 15 ng/mL in [15]; 20 ng/mL in data set [17]. In [18], the Papp is 5.8 ×10⁻⁶ cm/s.

Regarding `COc1cc(/C=C2\CCCN([C@@H](C)c3ccc(F)cc3)C2=O)ccc1-n1cnc(C)c1`, the Kp uu came to 7 in [1]; 2.3 in data set [3]; 0.77 in [4]; 0.13 in [5]; 0.4 in data set [10]. Also, the fraction unbound at 6 h, 2 µM is 0.00185 in data set [2]; 0.00785 in [7]; 0.0012 in [8]; 0.00939 in [9]; 0.00363 in data set [11]; 0.00429 in [16]. The Cp in data set [6] turned out to be 210 ng/mL. The Ct in data set [12] was 1200 ng/mL; in data set [13] it was 360 ng/mL; in data set [14], 180 ng/mL; in [15], 150 ng/mL; in data set [17], 1800 ng/mL. The apparent permeability coefficient (Papp) in [18] came to 16 ×10⁻⁶ cm/s.

Turning to `CN(C)C[C@@H](OC(=O)N1Cc2c(NC(=O)C3(C(F)(F)F)CC3)n[nH]c2C1(C)C)c1ccccc1`, the Kp uu in [1] amounted to 3.3; in [3], 1.6; in data set [4], 1.8; in [5] it was 1.4; in data set [10], 0.013. Also, the unbound share (fraction unbound) at 6 h, 2 µM in [2] stood at 0.205; in data set [7], 0.362; in data set [8], 0.138; in data set [9], 0.0749; in data set [11] it was 0.0941; in data set [16], 0.0543. For the same compound, the Cp in data set [6] amounted to 28 ng/mL. For the same compound, the Ct in [12] is 420 ng/mL; in data set [13], 190 ng/mL; in data set [14] it was 97 ng/mL; in data set [15], 2.3 ng/mL; in data set [17], 79 ng/mL. The apparent permeability coefficient (Papp) in data set [18] came out at 15 ×10⁻⁶ cm/s.

With `COc1ccc(-c2cc3c(C(=O)O)n[nH]c3cc2Cl)cc1`, the Kp uu was found to be 6.5 in data set [1]; 1.2 in data set [3]; 1.8 in data set [4]; 0.15 in [5]; 0.017 in [10]. Moreover, the fraction unbound at 6 h, 2 µM in data set [2] amounted to 0.334; in data set [7], 0.00439; in data set [8], 0.0398; in [9], 0.0193; in data set [11], 0.0256; in data set [16], 0.0135. The compound also showed a Cp in [6] of 96 ng/mL. Further, the Ct in data set [12] was 140 ng/mL; in data set [13], 29 ng/mL; in data set [14], 1.9 ng/mL; in data set [15] it was 0.6 ng/mL; in [17], 1 ng/mL. For the same compound, in [18], the Papp amounted to 8.8 ×10⁻⁶ cm/s.

Take `COc1ccc(-c2cc3c(S(=O)(=O)O)c[nH]c3cc2Cl)cc1`: the Kp uu in data set [1] was 8.7; in [3], 3.8; in data set [4], 2.9; in [5], 0.6; in [10], 0.13. The free fraction (fraction unbound) at 6 h, 2 µM in [2] amounted to 0.347; in data set [7], 0.00473; in data set [8] it was 0.0546; in [9], 0.0303; in data set [11], 0.0523; in data set [16], 0.0414. This compound also came in with a Cp in data set [6] of 330 ng/mL. For the same compound, the Ct worked out at 380 ng/mL in data set [12]; 82 ng/mL in data set [13]; 16 ng/mL in [14]; 4.2 ng/mL in [15]; 15 ng/mL in data set [17]. In [18], the Papp is 2.3 ×10⁻⁶ cm/s.

Consider `O=C(c1cccc(N2CCNCC2)n1)N1CCC(c2ccccc2F)CC1`, for which the Kp uu in data set [1] was determined as 9.4; in [3], 2.4; in data set [4], 5.3; in data set [5], 2; in data set [10], 0.078. Further, the unbound share (fraction unbound) at 6 h, 2 µM was 0.393 in [2]; 0.0995 in data set [7]; 0.0483 in data set [8]; 0.0394 in data set [9]; 0.057 in data set [11]; 0.0227 in data set [16]. Also, in data set [6], the Cp is 42 ng/mL. The Ct was 960 ng/mL in data set [12]; 410 ng/mL in data set [13]; 170 ng/mL in [14]; 14 ng/mL in data set [15]; 28 ng/mL in data set [17]. For the same compound, the Papp in data set [18] worked out at 24 ×10⁻⁶ cm/s.

Consider `O=C(NC1CC1)c1nc2cccnn2c1-c1ccc2ncnn2c1`, for which the Kp uu turned out to be 3.9 in data set [1]; 0.95 in data set [3]; 4 in data set [4]; 1.3 in data set [5]; 2.5 in [10]. Besides, the free fraction (fraction unbound) at 6 h, 2 µM in data set [2] is 0.709; in data set [7], 0.511; in data set [8] it was 0.304; in [9] it was 0.439; in [11], 0.746; in [16], 0.886. This compound also had a Cp in data set [6] of 50 ng/mL. The Ct in data set [12] was 210 ng/mL; in [13] it was 140 ng/mL; in [14] it was 100 ng/mL; in data set [15] it was 68 ng/mL; in data set [17] it was 29 ng/mL. The apparent permeability coefficient (Papp) in data set [18] came out at 27 ×10⁻⁶ cm/s.

Turning to `O=C(O)[C@@H]1CCCN(C(=O)n2cnc(-c3ccc(-c4cnc(N5CCOCC5)nc4)cc3)n2)[C@H]1c1ccccc1`, the Kp uu stood at 18 in [1]; 2.5 in data set [3]; 1.1 in data set [4]; 0.3 in data set [5]; 0.0089 in data set [10]. Moreover, the fraction unbound at 6 h, 2 µM in data set [2] came out at 0.089; in [7], 0.00273; in [8], 0.00554; in [9], 0.00643; in data set [11], 0.00542; in data set [16], 0.00251. Also, the Cp in data set [6] was 120 ng/mL. Further, the Ct is 860 ng/mL in [12]; 59 ng/mL in [13]; 18 ng/mL in data set [14]; 1.5 ng/mL in data set [15]; 8 ng/mL in [17]. In addition, in [18], the apparent permeability coefficient (Papp) amounted to 7.9 ×10⁻⁶ cm/s.

As to `COCCCN1C[C@H](C)N(C(=O)N2Cc3c(NC(=O)c4ccccn4)n[nH]c3C2(C)C)C[C@H]1C`, the Kp uu in data set [1] was found to be 3.8; in data set [3], 0.51; in data set [4] it was 2.2; in [5], 1.5; in data set [10], 0.015. Also, the fraction unbound at 6 h, 2 µM worked out at 0.329 in [2]; 0.614 in data set [7]; 0.385 in [8]; 0.375 in data set [9]; 0.341 in data set [11]; 0.0796 in [16]. Moreover, the Cp in data set [6] was 30 ng/mL. Further, the Ct in data set [12] was found to be 170 ng/mL; in data set [13] it was 110 ng/mL; in data set [14], 68 ng/mL; in [15], 3.4 ng/mL; in data set [17] it was 27 ng/mL. The Papp in [18] was 21 ×10⁻⁶ cm/s.
